Several values for one entry are separate records, joined by “and”; a condition that tells them apart may be missing. Equal entries are not always repeated.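 In this assay, cells in 96-well plates receive the compound at five concentrations for 48 hours. Endpoints are linearly interpolated between the surrounding concentrations. GI50 = concentration required for 50% inhibition of growth. TGI: total growth inhibition.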
Legend:
Test in all cases: DTP human tumour cell line panel, 48 h
MALME-3M melanoma = test system: MALME-3M melanoma
DU-145 prostate = test system: DU-145 prostate
UO-31 renal = test system: UO-31 renal
OVCAR-3 ovarian = test system: OVCAR-3 ovarian
HOP-62 NSCLC = test system: HOP-62 NSCLC
T-47D breast = test system: T-47D breast
OVCAR-4 ovarian = test system: OVCAR-4 ovarian
HS 578T breast = test system: HS 578T breast
786-0 renal = test system: 786-0 renal
MDA-MB-231 breast = test system: MDA-MB-231 breast

Nc1cc2c3ccccc3ccc2c2ccccc12
GI50 (MALME-3M melanoma): > 100 µM | TGI (MALME-3M melanoma): > 100 µM | GI50 (DU-145 prostate): > 87.4 µM | TGI (DU-145 prostate): > 100 µM | GI50 (UO-31 renal): > 100 µM | TGI (UO-31 renal): > 100 µM | GI50 (OVCAR-3 ovarian): > 67 µM | TGI (OVCAR-3 ovarian): > 100 µM | GI50 (HOP-62 NSCLC): 30.6 µM | TGI (HOP-62 NSCLC): > 100 µM | GI50 (T-47D breast): > 38.1 µM | TGI (T-47D breast): > 100 µM | GI50 (OVCAR-4 ovarian): > 22.5 µM | TGI (OVCAR-4 ovarian): > 100 µM | GI50 (HS 578T breast): > 100 µM | TGI (HS 578T breast): > 100 µM | GI50 (786-0 renal): > 100 µM | TGI (786-0 renal): > 100 µM | GI50 (MDA-MB-231 breast): 7.36 µM | TGI (MDA-MB-231 breast): > 100 µM

Cc1cc(C(=O)NOCCO)c(Nc2ccc(I)cc2F)n(C)c1=O
GI50 (MALME-3M melanoma): < 0.01 µM | TGI (MALME-3M melanoma): 0.0115 µM and < 0.01 µM | GI50 (DU-145 prostate): > 10 µM and 53.8 µM | TGI (DU-145 prostate): > 100 µM | GI50 (UO-31 renal): 0.0289 µM and < 0.045 µM | TGI (UO-31 renal): > 100 µM | GI50 (OVCAR-3 ovarian): > 100 µM | TGI (OVCAR-3 ovarian): > 100 µM | TGI (HOP-62 NSCLC): > 100 µM | GI50 (T-47D breast): > 10 µM and 78.9 µM | TGI (T-47D breast): > 100 µM | TGI (OVCAR-4 ovarian): > 100 µM | GI50 (HS 578T breast): > 10 µM and 37.2 µM | TGI (HS 578T breast): > 100 µM | GI50 (786-0 renal): > 83.9 µM | TGI (786-0 renal): > 100 µM | GI50 (MDA-MB-231 breast): 0.0075 µM and < 0.01 µM | TGI (MDA-MB-231 breast): > 100 µM

Nc1ncnc2c1ncn2Cc1ccc(CCl)cc1
GI50 (MALME-3M melanoma): 19 µM | TGI (MALME-3M melanoma): 43.4 µM | GI50 (DU-145 prostate): 19 µM | TGI (DU-145 prostate): 50.7 µM | GI50 (UO-31 renal): 22.3 µM | TGI (UO-31 renal): 46.8 µM | GI50 (OVCAR-3 ovarian): 14.3 µM | TGI (OVCAR-3 ovarian): 31.7 µM | GI50 (HOP-62 NSCLC): 34.5 µM | TGI (HOP-62 NSCLC): > 100 µM | GI50 (T-47D breast): 8 µM | TGI (T-47D breast): 27.4 µM | GI50 (OVCAR-4 ovarian): 19.4 µM | TGI (OVCAR-4 ovarian): 38.3 µM | GI50 (HS 578T breast): 25.9 µM | TGI (HS 578T breast): 58.1 µM | GI50 (786-0 renal): 27.5 µM | TGI (786-0 renal): 73.6 µM | GI50 (MDA-MB-231 breast): 17.5 µM | TGI (MDA-MB-231 breast): 35.8 µM

COc1cc(-c2cc(-c3ccc(Nc4nc(Nc5ccc(Cl)cc5)nc(Nc5ccc(Cl)cc5)n4)cc3)no2)cc(OC)c1OC
GI50 (MALME-3M melanoma): 50.3 µM | TGI (MALME-3M melanoma): > 100 µM | GI50 (DU-145 prostate): 7.08 µM | TGI (DU-145 prostate): > 100 µM | GI50 (UO-31 renal): 6 µM | TGI (UO-31 renal): > 100 µM | GI50 (OVCAR-3 ovarian): 6.68 µM | TGI (OVCAR-3 ovarian): 88.9 µM | GI50 (HOP-62 NSCLC): 11 µM | TGI (HOP-62 NSCLC): 84.2 µM | GI50 (T-47D breast): 3.15 µM | TGI (T-47D breast): > 100 µM | GI50 (OVCAR-4 ovarian): 57.1 µM | TGI (OVCAR-4 ovarian): > 100 µM | GI50 (HS 578T breast): 1.71 µM | TGI (HS 578T breast): > 100 µM | GI50 (786-0 renal): 3.6 µM | TGI (786-0 renal): 20.1 µM | GI50 (MDA-MB-231 breast): 5.15 µM | TGI (MDA-MB-231 breast): > 100 µM

Clc1ccc(Nc2nnc(COc3ccccc3)c3ccccc23)cc1
GI50 (MALME-3M melanoma): 1.38 µM | TGI (MALME-3M melanoma): 7.3 µM | GI50 (DU-145 prostate): 2.65 µM | TGI (DU-145 prostate): 10.5 µM | GI50 (UO-31 renal): 0.727 µM | TGI (UO-31 renal): 5.2 µM | GI50 (OVCAR-3 ovarian): 2.87 µM | TGI (OVCAR-3 ovarian): 9.8 µM | GI50 (HOP-62 NSCLC): 2.51 µM | TGI (HOP-62 NSCLC): 7.74 µM | GI50 (T-47D breast): 0.881 µM | TGI (T-47D breast): 8.44 µM | GI50 (OVCAR-4 ovarian): 2.09 µM | TGI (OVCAR-4 ovarian): 25 µM | GI50 (HS 578T breast): 2.58 µM | TGI (HS 578T breast): 10.5 µM | GI50 (786-0 renal): 2.6 µM | TGI (786-0 renal): 8.11 µM | GI50 (MDA-MB-231 breast): 1.28 µM | TGI (MDA-MB-231 breast): 6.9 µM

OC(CBr)C(O)C(O)C(O)CBr (centres undefined)
TGI (MALME-3M melanoma): > 100 µM | TGI (DU-145 prostate): > 100 µM | GI50 (UO-31 renal): > 100 µM | TGI (UO-31 renal): > 100 µM | TGI (OVCAR-3 ovarian): 97 µM and > 100 µM | TGI (HOP-62 NSCLC): > 100 µM | TGI (T-47D breast): > 100 µM | TGI (OVCAR-4 ovarian): > 100 µM | TGI (HS 578T breast): > 100 µM | TGI (786-0 renal): > 67.9 µM | TGI (MDA-MB-231 breast): > 100 µM

S=C1NC(c2ccccc2)NC(c2ccccc2)S1 (centres undefined)
TGI (MALME-3M melanoma): > 100 µM | TGI (DU-145 prostate): > 100 µM | TGI (UO-31 renal): > 100 µM | TGI (OVCAR-3 ovarian): > 100 µM | TGI (HOP-62 NSCLC): > 100 µM | TGI (T-47D breast): > 100 µM | TGI (OVCAR-4 ovarian): > 100 µM | TGI (HS 578T breast): > 100 µM | TGI (786-0 renal): > 100 µM | TGI (MDA-MB-231 breast): > 100 µM

C=C1CC2(CC(c3ccccc3C)OC(c3ccccc3C)C2)OC1=O (centres undefined)
TGI (MALME-3M melanoma): 3.29 µM | TGI (DU-145 prostate): 24.6 µM | TGI (UO-31 renal): 11.3 µM | TGI (OVCAR-3 ovarian): 3.58 µM | TGI (HOP-62 NSCLC): 26.8 µM | TGI (T-47D breast): 3.21 µM | TGI (OVCAR-4 ovarian): 5.49 µM | TGI (HS 578T breast): 5.43 µM | TGI (786-0 renal): 4.74 µM | TGI (MDA-MB-231 breast): 3.17 µM

C=C1C(=O)O[C@H]2[C@H]1CC/C(COC(=O)NCCc1ccc(Br)cc1)=C\CC[C@@]1(C)O[C@@H]21
GI50 (MALME-3M melanoma): 2.09 µM | TGI (MALME-3M melanoma): 3.77 µM | GI50 (DU-145 prostate): 0.771 µM | TGI (DU-145 prostate): 2.04 µM | GI50 (UO-31 renal): 1.55 µM | TGI (UO-31 renal): 2.95 µM | GI50 (OVCAR-3 ovarian): 0.984 µM | TGI (OVCAR-3 ovarian): 2.27 µM | GI50 (HOP-62 NSCLC): 1.99 µM | TGI (HOP-62 NSCLC): 4.4 µM | GI50 (T-47D breast): 1.38 µM | TGI (T-47D breast): 3.72 µM | GI50 (OVCAR-4 ovarian): 1.56 µM | TGI (OVCAR-4 ovarian): 3.29 µM | GI50 (HS 578T breast): 2.41 µM | TGI (HS 578T breast): 7.15 µM | GI50 (786-0 renal): 1.04 µM | TGI (786-0 renal): 2.4 µM | GI50 (MDA-MB-231 breast): 1.42 µM | TGI (MDA-MB-231 breast): 3.08 µM

CC(=O)Nc1ccc2c(c1)[nH]c(=O)c1cc(NC(C)=O)ccc12
GI50 (MALME-3M melanoma): > 100 µM | TGI (MALME-3M melanoma): > 100 µM | GI50 (DU-145 prostate): > 100 µM | TGI (DU-145 prostate): > 100 µM | GI50 (UO-31 renal): > 100 µM | TGI (UO-31 renal): > 100 µM | GI50 (OVCAR-3 ovarian): > 100 µM | TGI (OVCAR-3 ovarian): > 100 µM | GI50 (HOP-62 NSCLC): > 100 µM | TGI (HOP-62 NSCLC): > 100 µM | GI50 (T-47D breast): > 100 µM | TGI (T-47D breast): > 100 µM | GI50 (OVCAR-4 ovarian): > 100 µM | TGI (OVCAR-4 ovarian): > 100 µM | GI50 (HS 578T breast): > 100 µM | TGI (HS 578T breast): > 100 µM | GI50 (786-0 renal): > 100 µM | TGI (786-0 renal): > 100 µM | GI50 (MDA-MB-231 breast): 90.2 µM | TGI (MDA-MB-231 breast): > 100 µM

O=C(Nc1n[nH]c2cc(-c3ccc(F)cc3)ccc12)C1CC1
GI50 (MALME-3M melanoma): 9.79 µM | TGI (MALME-3M melanoma): > 25 µM | GI50 (DU-145 prostate): 10.2 µM | TGI (DU-145 prostate): > 25 µM | GI50 (UO-31 renal): 3.74 µM | TGI (UO-31 renal): > 25 µM | GI50 (OVCAR-3 ovarian): 6.33 µM | TGI (OVCAR-3 ovarian): 20 µM | GI50 (HOP-62 NSCLC): 8.37 µM | TGI (HOP-62 NSCLC): > 23.7 µM | GI50 (T-47D breast): 6.37 µM | TGI (T-47D breast): > 21.7 µM | GI50 (OVCAR-4 ovarian): 9.87 µM | TGI (OVCAR-4 ovarian): > 25 µM | GI50 (HS 578T breast): 10.7 µM | TGI (HS 578T breast): > 25 µM | GI50 (786-0 renal): 17.7 µM | TGI (786-0 renal): > 25 µM | GI50 (MDA-MB-231 breast): 12.6 µM | TGI (MDA-MB-231 breast): > 25 µM

Reference: PubChem BioAssay (NCI)
